From patent EP4800018A1, “PAN-KRAS INHIBITOR AND USE THEREOF IN MEDICINES” (Betta Pharmaceuticals Co., Ltd., priority 2023, dated 2025)
Like-named read-outs stand apart in the source and are kept apart here.

What was measured:
Type in all cases: cell-based
[1] = system: KRAS-G12D mutant tumor cells AGS; experiment: Cell Proliferation Inhibition Assay (AGS), Cell-titer GLO, 96 h; conditions: AGS cells, 96 h incubation, Cell-titer GLO, read-out: AGS(G12D)
How it was run: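 AGS cells (KRAS-G12D) grown in low-attachment plates were exposed to compound for 96 h at 37°C. Viability was read by CellTiter-Glo luminescence and converted to % inhibition against max and blank wells. IC50 came from curve fitting.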

[2] = system: KRAS-G12V mutant tumor cells SW620; experiment: Cell Proliferation Inhibition Assay (SW620), Cell-titer GLO, 96 h; conditions: SW620 cells, 96 h incubation, Cell-titer GLO, read-out: SW620(G12V)
How it was run: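 SW620 cells (1×10^3/well, low-attachment) were exposed to compound from 10000 to 0.03 nM (0.5% DMSO) for 96 h at 37°C. Viability was read by Cell-titer GLO luminescence. Inhibition was calculated relative to DMSO and blank wells, and IC50 obtained by curve fitting.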

[3] = biological target: T1, KRAS G12D-cRAF (Homo sapiens, UniProt P01116, G12D); experiment: Cellular KRAS G12D-cRAF Binding Inhibition Assay (NanoBRET, AD293 stable cells); conditions: 3 h incubation, read-out: NanoBRET KRAS G12D
T1 construct: expressed in transfected cells
How it was run: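 AD293 cells stably expressing KRAS G12D-NanoLuc and cRAF RBD-HaloTag were seeded at 1×10^4 cells/well with NanoBRET 618 ligand overnight. BRET signal was converted to % inhibition of binding relative to max and blank wells, and IC50 came from curve fitting.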

[4] = biological target: T2, KRAS G12V-cRAF (Homo sapiens, UniProt P01116, G12V); experiment: Cellular KRAS G12V-cRAF Binding Inhibition Assay (NanoBRET, AD293 stable cells); conditions: 3 h incubation, read-out: NanoBRET KRAS G12V
T2 construct: expressed in transfected cells
How it was run: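 Live AD293 stable cells, NanoLuc donor with HaloTag NanoBRET 618 ligand acceptor added overnight. Inhibition percent from luminescence relative to max signal and medium blank; IC50 from curve fitting.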

T2 sequence (P01116 1-188 isoform P01116-2 G12V): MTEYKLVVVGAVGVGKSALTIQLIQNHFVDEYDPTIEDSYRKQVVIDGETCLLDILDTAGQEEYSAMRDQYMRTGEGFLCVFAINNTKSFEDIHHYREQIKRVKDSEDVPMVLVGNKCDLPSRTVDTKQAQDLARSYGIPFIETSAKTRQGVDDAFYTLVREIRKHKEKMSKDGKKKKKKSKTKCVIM
T1 sequence (P01116 1-188 isoform P01116-2 G12D): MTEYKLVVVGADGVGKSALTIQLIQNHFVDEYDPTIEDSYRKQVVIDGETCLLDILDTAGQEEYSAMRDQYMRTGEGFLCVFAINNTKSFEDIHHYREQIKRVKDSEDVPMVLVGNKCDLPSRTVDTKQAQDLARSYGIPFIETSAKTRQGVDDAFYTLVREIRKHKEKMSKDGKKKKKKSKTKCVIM

SMILES | IC50 [1] | IC50 [2] | IC50 [3] | IC50 [4] | IC50 ([1]; Homo sapiens, AGS, 96 h) | IC50 ([2]; Homo sapiens, SW-620, 96 h)
CC1OCCCn2c(c3c4cc(ccc42)-c2csc(n2)CC(NC(=O)C2CC2C(F)F)C(=O)N2CCCC(N2)C(=O)OCC(C)(C)C3)-c2cc(N3CC(C)N(C)C(C)C3)cnc21 [Example 142, (1S,2S)-2-(difluoromethyl)-N-((1^5S,6^3S,4S,Z)-1^5,10,10-trimethyl-5,7-dioxo-1^2-((3S,5S)-3,4,5-trimethylpiperazin-1-yl)-1^8,1^9,6^1,6^2,6^3,6^4,6^5,6^6-octahydro-1^5H,1^7H-8-oxa-1(13,15)-pyrido[3',2':7,8] [1,5]oxazonino[5,6-a]indola-2(4,2)-thiazola-6(1,3)-pyridazinacycloundecaphane-4-yl)cyclopropane-1-carboxamide] | 0.3 nM | 0.09 nM | 1.88 nM | 5.61 nM |  | 
CC1OCCCn2c(c3c4cc(ccc42)-c2coc(n2)CC(NC(=O)C2CC2C(F)F)C(=O)N2CCCC(N2)C(=O)OCC(C)(C)C3)-c2cc(N3CCOCC3)cnc21 [Example 146, (1S,2S)-2-(difluoromethyl)-N-((1^5S,6^3S,4S,Z)-1^5,10,10-trimethyl-1^2-morpholino-5,7-dioxo-1^8,1^9, 6^1,6^2,6^3,6^4,6^5 6-octahydro-1^5H,1^7H-8-oxa-1(13,15)-pyrido[3',2':7,8][1,5]oxazonino[5,6-a]indola-2(4,2)-oxazola-6(1,3)-pyridazinacycloundecaphane-4-yl)cyclopropane-1-carboxamide] |  |  | 1.97 nM | 8.52 nM | 1.4 nM | 0.6 nM
CCN1CCN(c2cnc3c(c2)-c2c4c5cc(ccc5n2CCCOC3C)-c2csc(n2)CC(NC(=O)C(C(C)C)N(C)C(=O)N2CCOCC2)C(=O)N2CCCC(N2)C(=O)OCC(C)(C)C4)CC1 [Example 149, N-((2S)-1-(((1^5S,6^3S,4S,Z)-1^2-(4-ethylpiperazin-1-yl)-1^5,10,10-trimethyl-5,7-dioxo-1^8,1^9,6^1,6^2,6^3 ,6^4,6^5,6^6-octahydro-1^5H,1^7H-8-oxa-1(13,15)-pyrido[3',2':7,8][1,5]oxazonino[5,6-a]indola-2(4,2)-thiazola-6(1,3)-pyridazinacycloundecaphane-4-yl)amino)-3-methyl-1-oxobutan-2-yl)-N-methyl morpholine-4-carboxamide] |  |  | 3.48 nM | 10.9 nM | 3.19 nM | 1.09 nM
CC1OCCCn2c(c3c4cc(ccc42)-c2csc(n2)CC(NC(=O)C2CC2C(F)F)C(=O)N2CCCC(N2)C(=O)OCC(C)(C)C3)-c2cc(N3CC4CCC3CN4C)cnc21 [Example 154, (1S,2S)-2-(difluoromethyl)-N-((1^5S,6^3S,4S,Z)-1^5,10,10-trimethyl-1^2-(5-methyl-2,5-diazabicyclo[2.2.2]octan-2-yl)-5,7-dioxo-1^8,1^9,6^1,6^2,6^3,6^4,6^5,6^6-octahydro-1^5H,1^7H-8-oxa-1(13,15)-pyrido[3',2 ':7,8][1,5]oxazonino[5,6-a]indola-2(4,2)-thiazola-6(1,3)-pyridazinacycloundecaphane-4-yl)cyclo propane-1-carboxamide] |  |  | 4.2 nM | 19.3 nM | 1.95 nM | 0.91 nM
CC1OCCCn2c(c3c4cc(ccc42)-c2csc(n2)CC(NC(=O)C2C(C)C2C)C(=O)N2CCCC(N2)C(=O)OCC(C)(C)C3)-c2cc(OCCN3CCOCC3)cnc21 [Example 158, (1r,2R,3S)-2,3-dimethyl-N-((1^5S,6^3S,4S,Z)-1^5,10,10-trimethyl-1^2-(2-morpholinoethoxy)-5,7-dioxo-1^8,1^9,6^1,6^26^3,6^4,6^5,6^6-octahydro-1^5H,1^7H-8-oxa-1(13,15)-pyrido[3',2':7,8][1,5]oxazonino[5,6-a]indola-2(4,2)-thiazola-6(1,3)-pyridazinacycloundecaphane-4-yl)cyclopropane-1-carboxamide] |  |  | 1.01 nM | 5.06 nM | 0.58 nM | 0.11 nM
CCN1CCN(c2cnc3c(c2)-c2c4c5cc(ccc5n2CCCOC3C)-c2csc(n2)CC(NC(=O)C2C(C)C2C)C(=O)N2CCCC(N2)C(=O)OCC(C)(C)C4)CC1 [Example 159, (1r,2R,3S)-N-((1^5S,6^3S,4S,Z)-1^2-(4-ethylpiperazin-1-yl)-1^5,10,10-trimethyl-5,7-dioxo-1^8,1^9,6^1,6^2 ,6^3,6^4,6^5,6^6-octahydro-1^5H,1^7H-8-oxa-1(13,15)-pyrido[3',2':7,8][1,5]oxazonino[5,6-a]indola-2(4, 2)-thiazola-6(1,3)-pyridazinacycloundecaphane-4-yl)-2,3-dimethylcyclopropane-1-carboxamide] |  |  | 0.38 nM | 3.83 nM | 0.21 nM | 0.06 nM
CCN1CCN(c2cnc3c(c2)-c2c4c5cc(ccc5n2CC(C)COC3C)-c2csc(n2)CC(NC(=O)C2CC2C(F)F)C(=O)N2CCCC(N2)C(=O)OCC(C)(C)C4)CC1 [Example 161, (1S,2S)-2-(difluoromethyl)-N-((1^5S,1^8R,6^3S,4S,Z)-1^2-(4-ethylpiperazin-1-yl)-1^5,1^8,10,10-tetramethyl-5,7-dioxo-1^8,1^9,6^1,6^2,6^3,6^4,6^5,6^6-octahydro-1^5H,1^7H-8-oxa-1(13,15)-pyrido[3',2':7,8][1,5]oxazonino[5,6-a]indola-2(4,2)-thiazola-6(1,3)-pyridazinacycloundecaphane-4-yl)cyclopropane-1-c arboxamide] |  |  | 0.92 nM | 4.52 nM | 0.71 nM | 0.24 nM
CC1OCCCn2c(c3c4cc(ccc42)-c2csc(n2)CC(NC(=O)C2C(C)C2C)C(=O)N2CCCC(N2)C(=O)OCC(C)(C)C3)-c2cc(N3CC(C)N(C)C(C)C3)cnc21 [Example 165, (1r,2R,3S)-2,3-dimethyl-N-((1^5S,6^3S,4S,Z)-1^5,10,10-trimethyl-5,7-dioxo-1^2-((3S,5R)-3,4,5-trimethylpiperazin-1-yl)-1^8,1^9,6^1,6^2,6^3,6^4,6^5,6^6-octahydro-1^5H,1^7H-8-oxa-1(13,15)-pyrido[3',2':7,8][1, 5]oxazonino[5,6-a]indola-2(4,2)-thiazola-6(1,3)-pyridazinacycloundecaphane-4-yl)cyclopropane-1-carboxamide] |  |  | 0.76 nM | 3.8 nM | 0.19 nM | 0.05 nM
CC1OCCCn2c(c3c4cc(ccc42)-c2csc(n2)CC(NC(=O)C2C(C)C2C)C(=O)N2CCCC(N2)C(=O)OCC(C)(C)C3)-c2cc(N3CC(C)N(C)C(C)C3)cnc21 [Example 171, (1r,2R,3S)-2,3-dimethyl-N-((1^5S,6^3S,4S,Z)-15,10,10-trimethyl-5,7-dioxo-1^2-((3S,5S)-3,4,5-trimethylpiperazin-1-yl)-1^8,1^9,6^1,6^2,6^3,6^4,6^5,6^6-octahydro-1^5H,1^7H-8-oxa-1(13,15)-pyrido[3',2':7,8][1, 5]oxazonino[5,6-a]indola-2(4,2)-thiazola-6(1,3)-pyridazinacycloundecaphane-4-yl)cyclopropane-1-carboxamide] | 0.11 nM | 0.04 nM | 0.24 nM | 3.04 nM |  | 
CC1OCCCn2c(c3c4cc(ccc42)-c2csc(n2)CC(NC(=O)C24CC(C)(C2)C4)C(=O)N2CCCC(N2)C(=O)OCC(C)(C)C3)-c2cc(N3CC(C)N(C)C(C)C3)cnc21 [Example 172, 3-methyl-N-((1^5S,6^3S,4S,Z)-1^5,10,10-trimethyl-5,7-dioxo-1^2-((3S,5S)-3,4,5-trimethylpiperazin-1-y)-1^8,1^9,6^1,6^2,6^3,6^4,6^5,6^6-octahydro-1^5H,1^7H-8-oxa-1(13,15)-pyrido[3',2':7,8][1,5]oxazonino[5,6-a]indola-2(4,2)-thiazola-6(1,3)-pyridazinacycloundecaphane-4-yl)bicyclo[1.1.1]pentane-1-carb oxamide] |  |  | 2.02 nM | 6.7 nM | 1.1 nM | 0.32 nM
CC1OCCCn2c(c3c4cc(ccc42)-c2csc(n2)CC(NC(=O)C2CC2C)C(=O)N2NC(C(=O)OCC(C)(C)C3)C3CC2C3)-c2cc(N3CCN(C)CC3)cnc21 [Example 183, (1S,2S)-2-methyl-N-((1^5S,6^4S,4S,Z)-1^5,10,10-trimethyl-1^2-(4-methylpiperazin-1-yl)-5,7-dioxo-1 ^8,1^9-dihydro-1^5H,1^7H-8-oxa-6^2,6^3-diaza-1(13,15)-pyrido[3',2':7,8][1,5]oxazonino[5,6-a]indola-2(4,2)-thiazola-6(2,4)-bicyclo[3.1.1]heptanacycloundecaphane-4-yl)cyclopropane-1-carboxamide] |  |  | 2.7 nM | 17.6 nM | 2 nM | 0.6 nM
